The test system of data set [1] is DENV-2 16681 strain labeled with eGFP. The data set is described as follows: DENV-2 antiviral assay (eGFP fluorescence read-out in Vero cells). Type of data set: cell-based, Dengue virus. The following applies: DENV-2 16681 eGFP, MOI 0.5, 3 days. The method, then:
The antiviral activity of all the compounds of the invention was tested against the DENV-2 16681 strain which was labeled with enhanced green fluorescent protein (eGPF). The culture medium consists of minimal essential medium supplemented with 2% of heat-inactivated fetal calf serum, 0.04% gentamycin (50 mg/mL) and 2 mM of L-glutamine. Vero cells, obtained from ECACC, were suspended in culture medium and 25 μL was added to 384-well plates (2500 cells/well), which already contain the antiviral compounds. Typically, these plates contain a 5-fold serial dilution of 9 dilution steps of the test compound at 200 times the final concentration in 100% DMSO (200 nL). […] Finally, each plate contains wells which are assigned as virus controls (containing cells and virus in the absence of compound), cell controls (containing cells in the absence of virus and compound) and medium controls (containing medium in the absence of cells, virus and compounds). To the wells assigned as medium control, 25 μL of culture medium was added instead of Vero cells. Once the cells were added to the plates, the plates were incubated for 30 minutes at room temperature to allow the cells to distribute evenly within the wells. Next, the plates were incubated in a fully humidified incubator (37° C., 5% CO2) until the next day. Then, DENV-2 strain 16681, labeled with eGFP, was added at a multiplicity of infection (MOI) of 0.5. Therefore, 15 μL of virus suspension was added to all the wells containing test compound and to the wells assigned as virus control. In parallel, 15 μL of culture medium was added to the medium and cell controls. Next, the plates were incubated for 3 days in a fully humidified incubator (37° C., 5% CO2). At the day of the read out, the eGFP fluorescence was measured using an automated fluorescence microscope at 488 nm (blue laser). Using an in-house LIMS system, inhibition dose response curves for each compound were calculated and the half maximal effective concentration (EC50) was determined. Therefore, the percent inhibition (I) for every test concentration is calculated using the following formula: I=100*([…])/(SVC−SCC); ST, SCC and SVC are the amount of eGFP signal in the test compound, cell control and virus control wells, respectively. The EC50 represents the concentration of a compound at which the virus replication is inhibited with 50%, as measured by a 50% reduction of the eGFP fluorescent intensity compared to the virus control. The EC50 is calculated using linear interpolation (Table 1).

A short description of data set [2]: in vitro. The following applies: African green monkey.
The subject of data set [3] is DENV-3 strain H87. The data set is described as follows: Tetravalent RT-qPCR assay Protocol A, serotype 3. The following applies: Dengue virus, DENV3, 72 h; RT-qPCR serotype 3 H87, Vero cells, day 3. Type of data set: cell-based. The method, then: (§1) The antiviral activity of the compounds of the invention was tested against DENV-1 strain TC974#666 (NCPV), DENV-2 strain 16681, DENV-3 strain H87 (NCPV) and DENV-4 strains H241 (NCPV) and EDEN (SG/06K2270DK1/2005; GenBank accession number QG398256) in a RT-qPCR assay. Therefore, Vero cells were infected with either DENV-1, or -2, or -3, or -4 in the presence or absence of test compounds. At day 3 post-infection, the cells were lysed and cell lysates were used to prepare cDNA of both a viral target (the 3′UTR of DENV; Table 2) and a cellular reference gene (β-actin, Table 2). Subsequently, a duplex real time PCR was performed on a Lightcycler480 instrument. The generated Cp value is inversely proportional to the amount of RNA expression of these targets. Inhibition of DENV replication by a test compound results in a shift of Cp's for the 3′UTR gene. On the other hand, if a test compound is toxic to the cells, a similar effect on β-actin expression will be observed. The comparative ΔΔCp method is used to calculate EC50, which is based on the relative gene expression of the target gene (3′UTR) normalized with the cellular housekeeping gene (β-actin). In addition, CC50 values are determined based on the Cp values acquired for the housekeeping gene β-actin.
(§2) The culture medium consisted of minimal essential medium supplemented with 2% of heat-inactivated fetal calf serum, 0.04% gentamycin (50 mg/mL) and 2 mM of L-glutamine. Vero cells, obtained from ECACC, were suspended in culture medium and 75 μL/well was added in 96-well plates (10000 cells/well), which already contain the antiviral compounds. […] In addition, each plate contains wells which are assigned as virus controls (containing cells and virus in the absence of compound) and cell controls (containing cells in the absence of virus and compound). Once the cells were added in the plates, the plates were incubated in a fully humidified incubator (37° C., 5% CO2) until the next day. Dengue viruses serotype-1, 2, 3 and 4 were diluted in order to obtain a Cp of ˜22-24 in the assay. Therefore, 25 μL of virus suspension, was added to all the wells containing test compound and to the wells assigned as virus control. In parallel, 25 μL of culture medium was added to the cell controls. Next, the plates were incubated for 3 days in a fully humidified incubator (37° C., 5% CO2). After 3 days, the supernatant was removed from the wells and the cells were washed twice with ice-cold PBS (−100 μL). The cell pellets within the 96-well plates were stored at −80° C. for at least 1 day. Next, RNA was extracted using the Cells-to-CT™ lysis kit, according to the manufacturer's guideline (Life Technologies). The cell lysates can be stored at −80° C. or immediately used in the reverse transcription step.
(§3) In preparation of the reverse transcription step, mix A (table 3A) was prepared and 7.57 μL/well was dispensed in a 96-well plate. After addition of 5 μL of the cell lysates, a five minute denaturation step at 75° C. was performed (table 3B). Afterwards, 7.43 μL of mix B was added (table 3C) and the reverse transcription step was initiated (table 3D) to generate cDNA.
(§4) Finally, a RT-qPCR mix was prepared, mix C (table 4A), and 22.02 μL/well was dispensed in 96-well LightCycler qPCR plates to which 3 μL of cDNA was added and the qPCR was performed according to the conditions in table 4B on a LightCycler 480.
(§5) Using the LightCycler software and an in-house LIMS system, dose response curves for each compound were calculated and the half maximal effective concentration (EC50) and the half maximal cytotoxic concentration (CC50) were determined (Tables 5-8).
Background: Real-time PCR tracks product formation cycle by cycle.

The test system of data set [4] is DENV-2 strain 16681. The experiment in a line: Tetravalent RT-qPCR assay Protocol A, serotype 2. Type of data set: cell-based. The following applies: Dengue virus, DENV2, 72 h; RT-qPCR serotype 2 16681, Vero cells, day 3. How it is done:
as §1, §2, §3, §4, §5

The test system of data set [5] is DENV-1 strain TC974#666. The experiment in a line: Tetravalent RT-qPCR assay Protocol A, serotype 1. Type of data set: cell-based. To be noted: Dengue virus, DENV1, 72 h; RT-qPCR serotype 1 TC974#666, Vero cells, day 3. How it is done: as §1, §2, §3, §4, §5
In data set [6] the test system is DENV-4 strain H241. The experiment in a line: Tetravalent RT-qPCR assay Protocol A, serotype 4 H241. Type of data set: cell-based. To be noted: Dengue virus, DENV4, 72 h; RT-qPCR serotype 4 H241, Vero cells, day 3. How it is done:
as §1, §2, §3, §4, §5

In data set [7] the test system is Vero cells. The following applies: African green monkey.
[8] abbreviates: Dengue virus, DENV2, Vero, 72 h.

Each structure is given as a SMILES string.

As a reminder, the EC50 is the midpoint of the concentration-response curve.

For `COc1cc(NC(C(=O)c2c[nH]c3cc(F)ccc23)c2ccc(F)cc2OCCO)cc(S(C)(=O)=O)c1` (racemic) [Compound 1, 1-(6-fluoro-1H-indol-3-yl)-2-(4-fluoro-2-(2-hydroxyethoxy)phenyl)-2-((3-methoxy-5-(methylsulfonyl)phenyl)amino)ethanone], the concentration for a half-maximal effect (EC50) in data set [1] (setting [8]) is 1.8 nM. In data set [2], this compound came in with a CC50 of 7600 nM.
For the compound `COc1cc(NC(C(=O)c2c[nH]c3cc(Cl)ccc23)c2ccc(F)cc2OCCO)cc(S(C)(=O)=O)c1` (racemic) [Compound 2, 1-(6-chloro-1H-indol-3-yl)-2-(4-fluoro-2-(2-hydroxyethoxy)phenyl)-2-((3-methoxy-5-(methylsulfonyl)phenyl)amino)-ethanone], in data set [1] (setting [8]), the EC50 turned out to be 0.81 nM. This compound also gave a CC50 in data set [2] of 6200 nM.
Taken in the same sequence, the figures for `COc1cc(NC(C(=O)c2c[nH]c3c(C)c(F)ccc23)c2ccc(F)cc2OCCO)cc(S(C)(=O)=O)c1` (racemic) [Compound 3, 2-(4-fluoro-2-(2-hydroxyethoxy)phenyl)-1-(6-fluoro-7-methyl-1H-indol-3-yl)-2-((3-methoxy-5-(methylsulfonyl)phenyl)amino)ethanone] were 1.2 nM and 5100 nM.
Taken in the same sequence, the figures for `COc1cc(NC(C(=O)c2c[nH]c3c(C)c(Cl)ccc23)c2ccc(F)cc2OCCO)cc(S(C)(=O)=O)c1` (racemic) [Compound 4, 1-(6-chloro-7-methyl-1H-indol-3-yl)-2-(4-fluoro-2-(2-hydroxyethoxy)phenyl)-2-((3-methoxy-5-(methylsulfonyl)phenyl)amino)ethanone] were 0.37 nM and 3500 nM.
For `COc1cc(NC(C(=O)c2c[nH]c3cc(F)c(F)cc23)c2ccc(F)cc2OCCO)cc(S(C)(=O)=O)c1` (racemic) [Compound 5, 1-(5,6-difluoro-1H-indol-3-yl)-2-(4-fluoro-2-(2-hydroxyethoxy)phenyl)-2-((3-methoxy-5-(methylsulfonyl)phenyl)-amino)ethanone], in that order: 1 nM and 6900 nM.
As to `COc1cc(NC(C(=O)c2c[nH]c3cc(OC)c(C)cc23)c2ccc(F)cc2OCCO)cc(S(C)(=O)=O)c1` (racemic) [Compound 6, 2-(4-fluoro-2-(2-hydroxyethoxy)phenyl)-2-((3-methoxy-5-(methylsulfonyl)phenyl)amino)-1-(6-methoxy-5-methyl-1H-indol-3-yl)ethanone], the 50% effective concentration (EC50) in data set [1] (setting [8]) came to 1.4 nM. Also, the CC50 in data set [2] is 5800 nM.
Taken in the same sequence, the figures for `COc1cc(NC(C(=O)c2c[nH]c3c(F)cc(C)cc23)c2ccc(F)cc2OCCO)cc(S(C)(=O)=O)c1` (racemic) [Compound 8, 2-(4-fluoro-2-(2-hydroxyethoxy)phenyl)-1-(7-fluoro-5-methyl-1H-indol-3-yl)-2-((3-methoxy-5-(methylsulfonyl)phenyl)amino)ethanone] were 2.3 nM and 6900 nM.
With `COc1cc(NC(C(=O)c2c[nH]c3cc(OC)c(OC(F)(F)F)cc23)c2ccc(F)cc2OCCO)cc(S(C)(=O)=O)c1` (racemic) [Compound 11, 2-(4-fluoro-2-(2-hydroxyethoxy)phenyl)-2-((3-methoxy-5-(methyl-sulfonyl)phenyl)amino)-1-(6-methoxy-5-(trifluoromethoxy)-1H-indol-3-yl)ethanone], the EC50 in data set [1] (setting [8]) came to 0.48 nM. Further, in data set [2], the CC50 was determined as 9000 nM.
Take `COc1cc(NC(C(=O)c2c[nH]c3c(F)cc(C)cc23)c2ccc(F)cc2OCCO)cc(S(C)(=O)=O)c1` (single isomer, unassigned) [Compound 8A, 2-(4-fluoro-2-(2-hydroxyethoxy)phenyl)-1-(7-fluoro-5-methyl-1H-indol-3-yl)-2-((3-methoxy-5-(methylsulfonyl)phenyl)amino)ethanone]: the EC50 turned out to be 36 nM in data set [3]; 1.4 nM in data set [4]; 2.3 nM in data set [5]; 1.1 nM in data set [1]; 220 nM in data set [6]. In addition, the CC50 in data set [7] is 3400 nM.
Turning to `COc1cc(NC(C(=O)c2c[nH]c3ccc(OC(F)(F)F)cc23)c2ccc(F)cc2OCCO)cc(S(C)(=O)=O)c1` (single isomer, unassigned) [Compound 10A, 2-(4-fluoro-2-(2-hydroxyethoxy)phenyl)-2-((3-methoxy-5-(methylsulfonyl)phenyl)amino)-1-(5-(trifluoromethoxy)-1H-indol-3-yl)ethanone], in data set [1], the EC50 is 20 nM. Moreover, the CC50 in data set [7] was 12000 nM.
For `COc1cc(NC(C(=O)c2c[nH]c3cc(OC)c(OC(F)(F)F)cc23)c2ccc(F)cc2OCCO)cc(S(C)(=O)=O)c1` (single isomer, unassigned) [Compound 11A, 2-(4-fluoro-2-(2-hydroxyethoxy)phenyl)-2-((3-methoxy-5-(methyl-sulfonyl)phenyl)amino)-1-(6-methoxy-5-(trifluoromethoxy)-1H-indol-3-yl)ethanone], in that order: 19 nM and 12000 nM.
Taken in the same sequence, the figures for `COc1cc(NC(C(=O)c2c[nH]c3c(C)cc(OC(F)(F)F)cc23)c2ccc(F)cc2OCCO)cc(S(C)(=O)=O)c1` (single isomer, unassigned) [Compound 12B, 2-(4-fluoro-2-(2-hydroxyethoxy)phenyl)-2-((3-methoxy-5-(methylsulfonyl)phenyl)amino)-1-(7-methyl-5-(trifluoromethoxy)-1H-indol-3-yl)ethanone] were 1.2 nM and 9900 nM.

The values are drawn from patent US10786484B2, “Mono- or di-substituted indole derivatives as dengue viral replication inhibitors” (Janssen Pharmaceuticals, Inc., priority 2015, dated 2020).
